Each molecule was assayed against PI3Kβ (Homo sapiens (Human), UniProt P42338) (assay: PI3K isoform TR-FRET enzymatic assay (PI3Kβ)). Conditions: 2× Km ATP, 30 minutes at 25° C.
Assay type: biochemical
In short: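 IC50 came from four-parameter dose-response fits, normalized between DMSO and 1 μM wortmannin controls. The read-out was TR-FRET (615/665 nm) of PIP3 displacing fluorescent PIP3 from Europium GRP-1 after 10 mM EDTA termination. Compounds were incubated with purified heterodimeric PI3Kβ for 30 min at 25° C.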

Sequence of PI3Kβ (P42338 whole entry, canonical isoform): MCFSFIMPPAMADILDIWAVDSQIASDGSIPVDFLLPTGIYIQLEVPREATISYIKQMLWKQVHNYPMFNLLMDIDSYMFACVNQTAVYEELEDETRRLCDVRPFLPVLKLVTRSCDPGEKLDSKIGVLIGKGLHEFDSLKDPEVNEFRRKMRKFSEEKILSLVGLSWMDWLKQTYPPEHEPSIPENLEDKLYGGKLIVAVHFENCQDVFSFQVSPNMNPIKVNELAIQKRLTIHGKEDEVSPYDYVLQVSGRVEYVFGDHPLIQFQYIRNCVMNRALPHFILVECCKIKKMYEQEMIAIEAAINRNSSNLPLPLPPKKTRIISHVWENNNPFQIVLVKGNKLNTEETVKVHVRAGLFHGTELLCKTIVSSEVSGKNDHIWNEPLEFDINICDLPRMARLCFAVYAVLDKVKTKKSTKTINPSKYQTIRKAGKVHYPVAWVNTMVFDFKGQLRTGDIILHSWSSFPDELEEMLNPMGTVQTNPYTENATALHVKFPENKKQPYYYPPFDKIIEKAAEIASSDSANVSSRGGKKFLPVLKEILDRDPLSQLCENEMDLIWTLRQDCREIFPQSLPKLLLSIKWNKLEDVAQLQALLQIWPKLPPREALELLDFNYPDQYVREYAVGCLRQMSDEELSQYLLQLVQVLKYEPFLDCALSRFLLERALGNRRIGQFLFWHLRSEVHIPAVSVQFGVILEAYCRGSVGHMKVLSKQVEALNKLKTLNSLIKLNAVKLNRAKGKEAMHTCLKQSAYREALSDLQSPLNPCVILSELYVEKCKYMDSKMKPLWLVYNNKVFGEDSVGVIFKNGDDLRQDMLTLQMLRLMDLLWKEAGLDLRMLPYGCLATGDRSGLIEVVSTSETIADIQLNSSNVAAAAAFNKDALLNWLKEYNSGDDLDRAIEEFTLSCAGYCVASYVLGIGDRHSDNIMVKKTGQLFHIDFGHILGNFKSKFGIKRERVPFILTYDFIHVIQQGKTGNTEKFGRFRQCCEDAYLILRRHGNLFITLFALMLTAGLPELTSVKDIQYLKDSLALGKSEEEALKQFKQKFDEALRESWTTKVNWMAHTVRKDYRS
Sequence of PI3Kβ (P27986 whole entry partner, canonical isoform): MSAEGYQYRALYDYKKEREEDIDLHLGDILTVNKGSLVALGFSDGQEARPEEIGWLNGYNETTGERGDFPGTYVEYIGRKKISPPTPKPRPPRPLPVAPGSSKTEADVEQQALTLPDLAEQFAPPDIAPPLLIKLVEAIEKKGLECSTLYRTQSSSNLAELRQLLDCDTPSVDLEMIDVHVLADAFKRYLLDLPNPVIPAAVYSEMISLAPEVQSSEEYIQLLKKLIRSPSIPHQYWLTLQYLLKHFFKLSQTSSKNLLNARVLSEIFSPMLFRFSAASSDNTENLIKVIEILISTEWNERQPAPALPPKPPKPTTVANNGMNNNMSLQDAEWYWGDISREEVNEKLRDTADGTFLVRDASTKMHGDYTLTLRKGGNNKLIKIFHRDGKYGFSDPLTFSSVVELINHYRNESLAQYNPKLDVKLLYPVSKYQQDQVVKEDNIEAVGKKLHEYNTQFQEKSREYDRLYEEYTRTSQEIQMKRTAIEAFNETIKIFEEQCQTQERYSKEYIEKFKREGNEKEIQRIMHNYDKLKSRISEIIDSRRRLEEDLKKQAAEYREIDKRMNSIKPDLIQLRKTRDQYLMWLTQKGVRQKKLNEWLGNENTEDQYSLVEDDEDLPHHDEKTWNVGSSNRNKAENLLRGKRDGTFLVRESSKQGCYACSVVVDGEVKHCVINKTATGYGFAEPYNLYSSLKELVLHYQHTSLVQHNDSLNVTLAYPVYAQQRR

IC50 [nM] | Compound
2 | Cc1nc2c(-c3nccs3)cc(N3CCOCC3)cc2n1-c1ccnc2c(Cl)ccc(F)c12 [Example 240, 4-[3-(8-chloro-5-fluoroquinolin-4-yl)-2-methyl-7-(1,3-thiazol-2-yl)benzimidazol-5-yl]morpholine]
9 | Cc1nc2c(-c3ncco3)cc(N3CCOCC3)cc2n1-c1ccnc2c(F)cccc12 [Example 200, 4-(1-(8-fluoroquinolin-4-yl)-2-methyl-4-(oxazol-2-yl)-1H-benzo[d]imidazol-6-yl)morpholine]
24 | Fc1ccc(Cl)c2c(-n3cnc4c(-c5nnc[nH]5)cc(N5CCOCC5)cc43)ccnc12 [Example 96, 4-[3-(5-chloro-8-fluoroquinolin-4-yl)-7-(4H-1,2,4-triazol-3-yl)benzimidazol-5-yl]morpholine]
42 | Cc1nc2c(-c3nnc(Cl)[nH]3)cc(N3CCOCC3)cc2n1-c1ccnc2c(F)ccc(F)c12 [Example 180, 4-[7-(5-chloro-4H-1,2,4-triazol-3-yl)-3-(5,8-difluoroquinolin-4-yl)-2-methylbenzimidazol-5-yl]morpholine]
11 | Cc1nc2c(-c3nnc[nH]3)cc(N3CCOCC3)cc2n1-c1ccnc2c(Cl)cc(F)cc12 [Example 35, 4-(1-(8-chloro-6-fluoroquinolin-4-yl)-2-methyl-4-(4H-1,2,4-triazol-3-yl)-1H-benzo[d]imidazol-6-yl)morpholine]
31 | c1ccc(-c2nc3c(-c4nnc[nH]4)cc(N4CCOCC4)cc3n2-c2ccnc3ccccc23)nc1 [Example 6, 4-(2-(pyridin-2-yl)-1-(quinolin-4-yl)-4-(4H-1,2,4-triazol-3-yl)-1H-benzo[d]imidazol-6-yl)morpholine]
44 | Cc1nnc(-c2cc(N3CCOCC3)cc3c2nc(C)n3-c2ccnc3c(Cl)ccc(Cl)c23)[nH]1 [Example 151, 4-(1-(5,8-dichloroquinolin-4-yl)-2-methyl-4-(5-methyl-4H-1,2,4-triazol-3-yl)-1H-benzo[d]imidazol-6-yl)morpholine]
21 | Clc1cccc2c(-n3c(C4CCCO4)nc4c(-c5nnc[nH]5)cc(N5CCOCC5)cc43)ccnc12 (centres unmarked) [Example 102, 4-[3-(8-chloroquinolin-4-yl)-2-(oxolan-2-yl)-7-(4H-1,2,4-triazol-3-yl)benzimidazol-5-yl]morpholine]
1100 | CCCc1nc2c(-c3cn[nH]c3)cc(N3CCOCC3)cc2n1-c1ccnc2c(F)ccc(F)c12 [Example 388, 4-(1-(5,8-difluoroquinolin-4-yl)-2-propyl-4-(1H-pyrazol-4-yl)-1H-benzo[d]imidazol-6-yl)morpholine]
5 | Cc1nc2c(-c3cnc(Cl)[nH]3)cc(N3CCOCC3)cc2n1-c1ccnc2c(Cl)ccc(F)c12 [Example 288, 4-[3-(8-chloro-5-fluoroquinolin-4-yl)-7-(2-chloro-1H-imidazol-5-yl)-2-methylbenzimidazol-5-yl]morpholine]
100 | CCc1nc2c(-c3nnc(Cl)[nH]3)cc(N3CCOCC3)cc2n1-c1ccnc2c(Cl)c(F)ccc12 [Example 172, 4-(4-(5-chloro-4H-1,2,4-triazol-3-yl)-1-(8-chloro-7-fluoroquinolin-4-yl)-2-ethyl-1H-benzo[d]imidazol-6-yl)morpholine]
12 | CCc1nc2c(-c3cnc(Cl)[nH]3)cc(N3CCOCC3)cc2n1-c1ccnc2c(Cl)c(F)ccc12 [Example 295, 4-[3-(8-chloro-7-fluoroquinolin-4-yl)-7-(2-chloro-1H-imidazol-5-yl)-2-ethylbenzimidazol-5-yl]morpholine]
280 | Cc1nc2c(-c3nnc[nH]3)cc(N3CCOCC3)cc2n1-c1ccnc2cccc(C(F)F)c12 [Example 85, 4-[3-[5-(difluoromethyl)quinolin-4-yl]-2-methyl-7-(4H-1,2,4-triazol-3-yl)benzimidazol-5-yl]morpholine]
8 | Fc1ccc(Cl)c2nccc(-n3c(C4CC4)nc4c(-c5cnc(Cl)[nH]5)cc(N5CCOCC5)cc43)c12 [Example 307, 4-[3-(8-chloro-5-fluoroquinolin-4-yl)-7-(2-chloro-1H-imidazol-5-yl)-2-cyclopropylbenzimidazol-5-yl]morpholine]

Reference: patent US10214519B2, “Phosphatidylinositol 3-kinase inhibitors” (Gilead Sciences, Inc., priority 2016, dated 2019)
